Measurements from ChEMBL document CHEMBL1143147, “A novel sesquiterpenoid dimer parviflorene F induces apoptosis by up-regulating the expression of TRAIL-R2 and a caspase-dependent mechanism” (Bioorg Med Chem, 2008).
Converted amounts (≈) assume the structure as drawn. The source made the active and inactive calls. The rule behind the calls is not given here.

What was measured:
HeLa [1] = assay: Cytotoxicity against human HeLa cells after 24 hrs by FMCA; assay type: functional, cell-based
HeLa [2] = assay: Increase in NM_003607 mRNA expression in human HeLa cells by RTPCR; assay type: functional, cell-based
HeLa [3] = assay: Increase in AF016266 mRNA expression in human HeLa cells by RTPCR; assay type: functional
HeLa [4] = assay: Increase in TRAIL-R2 protein level in human HeLa cells at 8 ug/ml after 24 hrs by Western blot; assay type: functional, cell-based
HeLa [5] = assay: Increase in TRAIL-R2 protein level in human HeLa cells at 4 ug/ml after 24 hrs by Western blot; assay type: functional, cell-based
HeLa [6] = assay: Induction of apoptosis in human HeLa cells assessed as accumulation at subG1 phase after 6 hrs by flow cytometry; assay type: functional
HeLa [7] = assay: Induction of apoptosis in human HeLa cells assessed as accumulation at subG1 phase after 12 hrs by flow cytometry; assay type: functional
HeLa [8] = assay: Induction of apoptosis in human HeLa cells assessed as accumulation at subG1 phase after 24 hrs by flow cytometry; assay type: functional
HeLa [9] = assay: Induction of apoptosis in human HeLa cells assessed as accumulation at G1 phase after 6 hrs by flow cytometry; assay type: functional
HeLa [10] = assay: Induction of apoptosis in human HeLa cells assessed as accumulation at G1 phase after 12 hrs by flow cytometry; assay type: functional
HeLa [11] = assay: Induction of apoptosis in human HeLa cells assessed as accumulation at G1 phase after 24 hrs by flow cytometry; assay type: functional
HeLa [12] = assay: Induction of apoptosis in human HeLa cells assessed as accumulation at S phase after 6 hrs by flow cytometry; assay type: functional
HeLa [13] = assay: Induction of apoptosis in human HeLa cells assessed as accumulation at S phase after 12 hrs by flow cytometry; assay type: functional
HeLa [14] = assay: Induction of apoptosis in human HeLa cells assessed as accumulation at S phase after 24 hrs by flow cytometry; assay type: functional
HeLa [15] = assay: Induction of apoptosis in human HeLa cells assessed as accumulation at G2/M phase after 6 hrs by flow cytometry; assay type: functional
HeLa [16] = assay: Induction of apoptosis in human HeLa cells assessed as accumulation at G2/M phase after 12 hrs by flow cytometry; assay type: functional
HeLa [17] = assay: Induction of apoptosis in human HeLa cells assessed as accumulation at G2/M phase after 24 hrs by flow cytometry; assay type: functional
HeLa [18] = assay: Induction of apoptosis in human HeLa cells assessed as early apoptotic cells at 4 ug/ml after 12 hrs by annexin V-FITC/PI staining; assay type: functional
HeLa [19] = assay: Induction of apoptosis in human HeLa cells assessed as early apoptotic cells at 4 ug/ml after 24 hrs by annexin V-FITC/PI staining; assay type: functional
HeLa [20] = assay: Reversal of drug-induced apoptosis in human HeLa cells expressing TRAIL-R2/Fc chimera protein after 12 hrs; assay type: functional, cell-based
HeLa [21] = assay: Induction of apoptosis in human HeLa cells assessed as caspase 3 activity at 4 ug/ml; assay type: functional, cell-based; conditions: TDE = time-dependent effect
HeLa [22] = assay: Induction of apoptosis in human HeLa cells assessed as cleavage of caspase 8 at 4 ug/ml after 6 hrs by Western blot; assay type: functional, cell-based
HeLa [23] = assay: Induction of apoptosis in human HeLa cells assessed as cleavage of caspase 8 at 4 ug/ml after 12 hrs by Western blot; assay type: functional, cell-based
HeLa [24] = assay: Reversal of drug-induced apoptosis in human HeLa cells in presence of caspase 8 inhibitor z-IETD after 12 hrs by Annexin-PI dual staining; assay type: functional
HeLa [25] = assay: Reversal of drug-induced apoptosis in human HeLa cells ain presence of caspase 9 inhibitor z-LEHD after 12 hrs by Annexin-PI dual staining; assay type: functional
DLD-1 [26] = assay: Cytotoxicity against human DLD1/TRAIL-R cells after 24 hrs; assay type: functional, cell-based; conditions: DLD-1, 24 h
DLD-1 [27] = assay: Upregulation of TRAIL-R2 protein in human DLD1/TRAIL-R cells at 4 ug/ml by Western blot; assay type: functional, cell-based
DLD-1 [28] = assay: Upregulation of TRAIL-R2 protein in human DLD1/TRAIL-R cells at 8 ug/ml by Western blot; assay type: functional, cell-based
HeLa [29] = assay: Cell viability in human HeLa cells at 4 ug/ml after 24 hrs; assay type: functional
DLD-1 [30] = assay: Cell viability in human DLD1/TRAIL-R cells at 8 ug/ml after 24 hrs; assay type: functional
HeLa [31] = assay: Induction of apoptosis in human HeLa cells assessed as late apoptotic cells at 4 ug/ml after 24 hrs by annexin V-FITC and PI staining; assay type: functional
HeLa [32] = assay: Cytotoxicity against human HeLa cells expressed as ratio of RHAMM gene expression in cells treated with drug at 5 ug/ml over control after 24 hrs; assay type: functional
DLD-1 [33] = assay: Cell viability in human DLD1/TRAIL-R cells at 8 ug/ml after 24 hrs in presence of TRAIL; assay type: functional
HeLa [34] = assay: Cell viability in human HeLa cells at 4 ug/ml after 24 hrs in presence of TRAIL; assay type: functional
HeLa [35] = assay: Cytotoxicity against human HeLa cells expressed as ratio of MRCKalpha gene expression in cells treated with drug at 5 ug/ml over control after 24 hrs; assay type: functional
HeLa [36] = assay: Cytotoxicity against human HeLa cells expressed as ratio of TRAIL-R2 gene expression in cells treated with drug at 5 ug/ml over control after 24 hrs; assay type: functional
HeLa [37] = assay: Cytotoxicity against human HeLa cells expressed as ratio of Cyr61 gene expression in cells treated with drug at 5 ug/ml over control after 24 hrs; assay type: functional

In the case of `Cc1cc(O)c2c(c1)[C@H](C(C)C)Cc1cc3c(cc1-2)[C@@H](O)[C@@H](C(C)C)c1cc(C)cc(O)c1-3` [PARVIFLORENE F], the IC50 (HeLa [1]) is reported as 4.3 mg/L (≈ 9.72 µM), the Activity (HeLa [2]) is reported as “Dose-dependent effect” and the Fold change (HeLa [3]) is reported as 4.9. The Activity (HeLa [4]) was “Active”, the Activity (HeLa [5]) was “Active” and the Activity (HeLa [6]) was 10.9%. For the same molecule, the Activity (HeLa [7]) was 31.5%, the Activity (HeLa [8]) was 26.1% and the Activity (HeLa [9]) was 56.1%. For the same molecule, the Activity (HeLa [10]) was 41.6%, the Activity (HeLa [11]) was 52.1% and the Activity (HeLa [12]) was 17.3%. For the same molecule, the Activity (HeLa [13]) was 10.3%, the Activity (HeLa [14]) was 5.5% and the Activity (HeLa [15]) was 15.6%. For the same molecule, the Activity (HeLa [16]) was 16.6%, the Activity (HeLa [17]) was 15.3% and the Activity (HeLa [18]) was 52.7%. For the same molecule, the Activity (HeLa [19]) was 41.2%, the Activity (HeLa [20]) was “Active” and the Activity (HeLa [21]) was “tde”. For the same molecule, the Activity (HeLa [22]) was “Active”, the Activity (HeLa [23]) was “inactive” and the Activity (HeLa [24]) was 2.2%. For the same molecule, the Activity (HeLa [25]) was 4%, the IC50 (DLD-1 [26]) was 9.2 mg/L (≈ 20.8 µM) and the Activity (DLD-1 [27]) was “Active”. The Activity (DLD-1 [28]) was “Active”, the Activity (HeLa [29]) was 44% and the Activity (DLD-1 [30]) was 54%. It also gave an Activity (HeLa [31]) of 22.9%, a Ratio (HeLa [32]) of 0.68 and an Activity (DLD-1 [33]) of 20%. The Activity (HeLa [34]) was 16%, the Ratio (HeLa [35]) was 1.71 and the Ratio (HeLa [36]) was 1.44. It also gave a Ratio (HeLa [37]) of 0.61.
